The source of these data is ChEMBL document CHEMBL1201862, “PubChem BioAssay data set” (2004).

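The compound was tested at five concentrations on cells cultured in 96-well plates, with a 48-hour exposure period. At the GI50, growth is halved.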 Active and inactive are the calls of the source. Cut-off read from the data, not from the text of the source: active = GI50 up to about 1.1 µM and inactive = higher.

Common to all, as to experiment: NCI anticancer screen, dose series, 48 h
Experiment [1] concerns NCI-H23.
The subject of experiment [2] is SN12C.
For experiment [3], the system named is HCT-116.
Experiment [4] deals with SF-539.
For experiment [5], the system named is K562.
The test system of experiment [6] is MDA-MB-435.
Experiment [7] has as its system RXF 393.
The test system of experiment [8] is SF-295.
Experiment [9] deals with MDA-N.
In experiment [10] the test system is IGROV-1.
For experiment [11], the system named is CAKI-1.
In experiment [12] the test system is TK-10.
The subject of experiment [13] is HOP-62.
In experiment [14] the test system is 786-0.
The test system of experiment [15] is NCI-H226.
The test system of experiment [16] is SK-OV-3.
Experiment [17] relates to OVCAR-8.
The subject of experiment [18] is NCI/ADR-RES.
The test system of experiment [19] is SR.
The subject of experiment [20] is RPMI-8226.

With `Sc1nnc(COc2ccc(Cl)cc2)n1-c1ccccc1`, the GI50 in experiment [1] is > 100 µM (inactive); in experiment [2], > 100 µM (inactive); in experiment [3] it was 46.1 µM (inactive); in experiment [4] it was > 100 µM (inactive); in experiment [5], 95.7 µM (inactive); in experiment [6], > 100 µM (inactive). Further, the GI50 was > 100 µM (inactive) in experiment [7]; > 100 µM (inactive) in [8]; > 100 µM (inactive) in experiment [9]; > 100 µM (inactive) in experiment [10]; 17.5 µM (inactive) in experiment [11]; > 100 µM (inactive) in experiment [12]. The GI50 in experiment [13], in [14], in experiment [15], in experiment [16], in experiment [17] and in [18] was > 100 µM (inactive) each time.

For the molecule `COc1cc(C2C3C=CC=C4CC=CC(=C43)C3CCC(=O)N32)cc(OC)c1OC` (stereo not drawn), the GI50 in [2] is > 100 µM (inactive); in experiment [19], > 100 µM (inactive); in experiment [3], 94.8 µM (inactive); in experiment [4] it was > 100 µM (inactive); in experiment [5], > 100 µM (inactive); in experiment [6], > 100 µM (inactive). Besides, the GI50 in experiment [8] is > 100 µM (inactive); in [10], 68.4 µM (inactive); in [12], > 100 µM (inactive); in experiment [13] it was > 100 µM (inactive); in [14], > 100 µM (inactive); in experiment [15], 0.224 µM (active). Besides, the GI50 in experiment [16] is 64 µM (inactive); in experiment [17], > 100 µM (inactive); in [20] it was > 100 µM (inactive); in experiment [18] it was 13.8 µM (inactive).

Consider `COc1cc2c(c(OC)c1OC)-c1ccc(SC)cc1C(O)CC2` (stereo not drawn), for which the GI50 in [1] is < 0.01 µM (active); in experiment [2], 0.427 µM (active); in [19], < 0.01 µM (active); in [3], < 0.01 µM (active); in experiment [4], < 0.01 µM (active); in experiment [5], < 0.01 µM (active). Also, the GI50 in experiment [6] is < 0.01 µM (active); in [8], < 0.01 µM (active); in experiment [9] it was 0.19 µM (active); in experiment [10], < 0.01 µM (active); in experiment [11], 0.071 µM (active); in experiment [12], 41 µM (inactive). Further, the GI50 in experiment [14] and in [20] was < 0.01 µM (active) each time.

Consider `O=C(O/N=C1/CCC/C1=C\c1ccccc1)c1ccc(Cl)cc1`, for which the GI50 in experiment [1] is 50.8 µM (inactive); in [2] it was > 58.6 µM (inactive); in experiment [19], > 82.4 µM (inactive); in experiment [3], > 100 µM (inactive); in experiment [4], 25.2 µM (inactive); in experiment [5], > 94.2 µM (inactive). Besides, the GI50 in [7] is 18 µM (inactive); in experiment [8] it was 42 µM (inactive); in experiment [10] it was > 46.5 µM (inactive); in experiment [11], > 52.1 µM (inactive); in experiment [12], 38.9 µM (inactive); in experiment [13], > 54.3 µM (inactive). Besides, the GI50 in experiment [14] was 51.8 µM (inactive); in experiment [15], > 95.7 µM (inactive); in experiment [16], > 70.3 µM (inactive); in experiment [17], > 71.6 µM (inactive); in experiment [20], > 65.9 µM (inactive).

In the case of `O=C(CSCC(=O)N/N=C\c1ccc(-c2ccccc2)cc1)N/N=C\c1ccc(-c2ccccc2)cc1`, the GI50 in experiment [1] was 17.8 µM (inactive); in experiment [2], 24.7 µM (inactive); in experiment [19] it was 6.58 µM (inactive); in [3], 9.27 µM (inactive); in experiment [4], 19.4 µM (inactive); in [5], 25.8 µM (inactive). Besides, the GI50 in [6] is 18.8 µM (inactive); in experiment [7] it was 50.5 µM (inactive); in experiment [8] it was 18.2 µM (inactive); in experiment [10], 11.8 µM (inactive); in [11], 40.5 µM (inactive); in experiment [12], 26 µM (inactive). In addition, the GI50 was 23 µM (inactive) in [13]; 33.2 µM (inactive) in [14]; 28.8 µM (inactive) in experiment [15]; 18.9 µM (inactive) in [16]; 24.6 µM (inactive) in experiment [17]; 56.4 µM (inactive) in experiment [18].

As to `O=C1Nc2ccc(Br)cc2/C1=N/S(=O)(=O)O`, the GI50 in experiment [1] was 19.6 µM (inactive); in experiment [2] it was 18.4 µM (inactive); in experiment [3] it was 10.6 µM (inactive); in experiment [5], 17.3 µM (inactive); in [6] it was 6.38 µM (inactive); in [7], 48.4 µM (inactive). Also, the GI50 in experiment [8] is 33.7 µM (inactive); in [9], 11.4 µM (inactive); in [10], 55.2 µM (inactive); in experiment [11] it was 35.6 µM (inactive); in [12] it was 14.5 µM (inactive); in [13], 60.5 µM (inactive). In addition, the GI50 was 25.4 µM (inactive) in experiment [14]; 28.4 µM (inactive) in experiment [15]; 79.8 µM (inactive) in [16]; 24.4 µM (inactive) in experiment [17]; 14.1 µM (inactive) in experiment [20]; 29.4 µM (inactive) in experiment [18].

Turning to `CC(C)NC(=O)OCc1c(COC(=O)NC(C)C)c(-c2cc[n+](COC(=O)CC(C)(C)C)cc2)n2c1CCC2`, the GI50 is > 100 µM (inactive) in experiment [1]; > 100 µM (inactive) in experiment [2]; 42.4 µM (inactive) in [19]; > 100 µM (inactive) in experiment [4]; > 100 µM (inactive) in [5]; > 100 µM (inactive) in [7]. Further, the GI50 in experiment [8], in experiment [9], in experiment [10], in experiment [11], in [13] and in experiment [14] was > 100 µM (inactive) in each case. Also, the GI50 in [15], in experiment [16], in [17], in experiment [20] and in experiment [18] was > 100 µM (inactive) throughout.

As for `COc1cc(C(C)O)c[n+](Cc2ccccc2)c1` (stereo not drawn), the GI50 in [1] was > 100 µM (inactive); in experiment [2], > 40.5 µM (inactive); in experiment [19], > 100 µM (inactive); in experiment [3], > 100 µM (inactive); in experiment [4] it was > 100 µM (inactive); in experiment [5], > 100 µM (inactive). Further, the GI50 in experiment [7], in experiment [8], in experiment [10], in experiment [11], in experiment [12] and in experiment [13] was > 100 µM (inactive) in each case. The GI50 in [14] was > 100 µM (inactive); in experiment [15], > 100 µM (inactive); in experiment [16] it was > 100 µM (inactive); in experiment [17] it was > 31.6 µM (inactive); in experiment [20] it was > 100 µM (inactive).

With `CCCC(=O)OC[n+]1ccc(-c2c(COC(=O)NC(C)C)c(COC(=O)NC(C)C)c3n2CCC3)cc1`, the GI50 in experiment [1] was > 100 µM (inactive); in [2], > 100 µM (inactive); in [19], 4.99 µM (inactive); in experiment [3] it was > 100 µM (inactive); in experiment [4] it was 28.1 µM (inactive); in experiment [5], > 100 µM (inactive). Moreover, the GI50 in [6] was > 100 µM (inactive); in [7], 34.5 µM (inactive); in experiment [8], 81.7 µM (inactive); in experiment [10] it was > 100 µM (inactive); in experiment [11], 21.8 µM (inactive); in experiment [12], > 100 µM (inactive). The GI50 in experiment [13] is 84.1 µM (inactive); in [14], 51.9 µM (inactive); in experiment [15], > 100 µM (inactive); in experiment [16], > 100 µM (inactive); in experiment [17] it was > 100 µM (inactive); in experiment [20], > 100 µM (inactive). For the same molecule, the GI50 in experiment [18] was > 100 µM (inactive).

Consider `CC1C2(C)OC(=N)C(C#N)(C(c3cccc([N+](=O)[O-])c3)O2)C1(C#N)C#N` (stereo not drawn), for which the GI50 in experiment [1] is 33.6 µM (inactive); in experiment [2], 14.9 µM (inactive); in experiment [3], 18.5 µM (inactive); in experiment [4] it was 18.9 µM (inactive); in [5], 14.6 µM (inactive); in experiment [7], 21.4 µM (inactive). For the same molecule, the GI50 is 84.7 µM (inactive) in experiment [8]; 16.5 µM (inactive) in experiment [9]; 42.6 µM (inactive) in experiment [10]; 12.1 µM (inactive) in experiment [11]; 42.1 µM (inactive) in experiment [12]; 17.4 µM (inactive) in experiment [14]. Further, the GI50 in experiment [15] is > 100 µM (inactive); in experiment [16], > 100 µM (inactive); in experiment [17], 29.6 µM (inactive); in experiment [18], 64.9 µM (inactive).

In the case of `O=C1Nc2ccc(Br)cc2/C1=C/C(=O)c1ccccc1`, the GI50 in experiment [1] is 10.2 µM (inactive); in [2], 4.2 µM (inactive); in experiment [19] it was 4.37 µM (inactive); in experiment [3] it was 4.22 µM (inactive); in experiment [4], 6.08 µM (inactive); in experiment [5], 5.57 µM (inactive). The GI50 in experiment [6] was 16.2 µM (inactive); in [7], 1.95 µM (inactive); in experiment [8], 17.8 µM (inactive); in experiment [10], 3.67 µM (inactive); in experiment [11], 7.74 µM (inactive); in [12] it was 1.82 µM (inactive). Also, the GI50 in experiment [13] is 22.7 µM (inactive); in experiment [14] it was 1.67 µM (inactive); in [15], 13.9 µM (inactive); in experiment [16] it was 17.6 µM (inactive); in experiment [17], 2.1 µM (inactive); in experiment [20], 2.46 µM (inactive).

Take `O=c1oc2ccccc2c(O)c1C1c2c(c3ccccc3oc2=O)Oc2c1c(=O)oc1ccccc21`: the GI50 in experiment [1] was 31.3 µM (inactive); in experiment [2] it was 30.1 µM (inactive); in experiment [3] it was 36.6 µM (inactive); in experiment [5], 33.7 µM (inactive); in experiment [6] it was 28.7 µM (inactive); in experiment [9] it was 18.9 µM (inactive). Further, the GI50 is 35 µM (inactive) in experiment [10]; 30.3 µM (inactive) in experiment [11]; 51.9 µM (inactive) in experiment [12]; 64.4 µM (inactive) in experiment [13]; 43.1 µM (inactive) in experiment [14]; 22.4 µM (inactive) in experiment [15]. In addition, the GI50 in experiment [17] was 32.1 µM (inactive); in experiment [20] it was 31.7 µM (inactive); in experiment [18] it was 60.7 µM (inactive).
